# Reference: PubChem BioAssay AID977628 (Broad Institute, 2014)
# Inconclusive results are not listed. The source made the active and inactive calls.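 Rule for the calls: active = compound lowering the normal-ribosome reporter at least twice as much as the humanized-ribosome reporter, growth loss under a set limit; inconclusive = no clear call, values can overlap the other calls; inactive = the rest.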
# Experiments:
# [1] = system: E. coli WT GFP strain growth, fluorescence, 24 h; assay: E. coli growth inhibition, wild-type GFP versus h24 humanized RFP strain, dose response, h24 mutant RFP vs wild-type GFP, cherry-pick (AID 977628)
# [2] = system: E. coli mixed WT/h24 culture total growth, OD600, 24 h; assay: as above
SMILES,AC50 [1],AC50 [2]
CCOC(=O)C(CC)Sc1cc(C)nc2ccc(OC)cc12 (stereo unspecified),> 100 µM (inactive),> 100 µM
COC(=O)c1ccc2nc(-c3ccc(OC)c(OC)c3)c(Cc3ccc(C)cc3)n2c1,> 100 µM (inactive),> 100 µM
COc1ccc(CNC(=O)c2cc3c(s2)CN(Cc2ccccc2)C3)cc1,> 100 µM (inactive),> 100 µM
COCC#Cc1ccc2c(c1)O[C@@H](CN(C)S(=O)(=O)c1cccc(F)c1)[C@@H](C)CN([C@H](C)CO)S2(=O)=O,> 100 µM (inactive),50 µM
C[C@@H]1CN([C@@H](C)CO)C(=O)c2cccc(NC(=O)Nc3ccccc3)c2O[C@@H]1CN(C)S(=O)(=O)c1ccc(Cl)cc1,> 100 µM (inactive),49.6 µM
CC(C)(C)c1cc(-c2n[nH]c(=S)n2-c2ccc(Cl)cc2)n[nH]1,> 100 µM (inactive),> 100 µM
COC(=O)C(Cc1csc2ccc(Cl)cc12)NC(=O)c1ccc(Cl)cc1 (stereo unspecified),> 100 µM (inactive),31 µM
COc1ccc(C)cc1NC(=O)c1nn(C)cc1Br,> 100 µM (inactive),> 100 µM
O=S(=O)(Nc1ccc(-c2nc3cccnc3s2)cc1)c1cc(F)ccc1F,> 100 µM (inactive),> 100 µM
COc1ccc(NC(=O)CN(c2ccccc2OC)S(=O)(=O)c2cccs2)cc1Cl,> 100 µM (inactive),> 100 µM
Cc1cccc(-c2ccc([C@H]3[C@H](CO)N4CCCCN(S(=O)(=O)c5ccccc5C)C[C@@H]34)cc2)c1,> 100 µM (inactive),> 100 µM
COc1ccc(N(C)S(=O)(=O)c2cccc(C(=O)NC3CCCCC3C)c2)cc1 (stereo unspecified),> 100 µM (inactive),47.7 µM
N#CCC(=O)Nc1ccc(C(=O)OCC(=O)Nc2ccc3ccccc3c2)cc1,> 100 µM (inactive),> 100 µM
Cc1onc(-c2ccccc2)c1-c1nnc(-c2ccccc2C(F)(F)F)o1,> 100 µM (inactive),> 100 µM
S=C1SCN(Cc2cccnc2)CN1Cc1ccccc1,> 100 µM (inactive),> 100 µM
Clc1cccc(OCc2nc(-c3ccncc3)n[nH]2)c1,> 100 µM (inactive),> 100 µM
O=C(NCc1nnnn1-c1ccc(Cl)cc1)c1ccc([N+](=O)[O-])o1,> 100 µM (inactive),> 100 µM
OCCN(Cc1ccccc1)Cc1ccc(Cl)cc1,> 100 µM (inactive),> 100 µM
O=C(CSc1nc2ccccc2[nH]1)Nc1cccc(S(=O)(=O)N2CCOCC2)c1,> 100 µM (inactive),47.9 µM
CCCN(CC(=O)Nc1ccccc1C)C(=O)c1cccc(S(=O)(=O)N2CCc3ccccc3C2)c1,> 100 µM (inactive),51.9 µM
Cn1c(SCC(=O)Nc2ccccc2-c2ccccc2)nnc1-c1ccco1,> 100 µM (inactive),> 100 µM

SMILES,AC50 [1],AC50 [2]
CCSc1nc2ccccc2c(=O)n1Cc1ccc(F)cc1,> 100 µM (inactive),45.7 µM
COc1ccc(NC(=O)CCC(=O)c2cccs2)cc1S(=O)(=O)Nc1ccc(Cl)cc1,> 100 µM (inactive),> 100 µM
O=C(Nc1cccc(Cl)c1)N1C[C@@H]2[C@H](c3ccccc31)[C@H](CO)N2Cc1ccncc1,> 100 µM (inactive),> 100 µM
COc1ccc(OCC(=O)N2c3ccccc3CC2C)c([N+](=O)[O-])c1 (stereo unspecified),> 100 µM (inactive),> 100 µM
COc1cc(NC(=O)CSCc2ccc(Cl)cc2Cl)c(C(=O)O)cc1OC,> 100 µM (inactive),> 100 µM
O=C(CCc1ccccc1)Nc1sc2c(c1C(=O)O)CCCC2,> 100 µM (inactive),52.3 µM
CN1c2ccc(C#Cc3cccnc3)cc2[C@@H]2[C@@H](CCN2C(=O)c2cccc(F)c2)[C@H]1CO,> 100 µM (inactive),> 100 µM
CCC(=O)Nc1nc2c(OC)ccc(OC)c2s1,> 100 µM (inactive),> 100 µM
O=C(CCCn1c(=S)[nH]c2ccsc2c1=O)Nc1ccc2c(c1)OCCO2,> 100 µM (inactive),46.7 µM
CCOc1ccc(CCNC(=O)CCc2nc3ccccc3[nH]2)cc1OCC,> 100 µM (inactive),> 100 µM
Cc1nc([N+](=O)[O-])c(Br)n1CC(=O)c1ccc(F)cc1,> 100 µM (inactive),> 100 µM
O=C(Cc1coc2cc(O)ccc12)N1CCN(S(=O)(=O)c2ccc(Br)cc2)CC1,> 100 µM (inactive),50.5 µM
CCN(CC(=O)Nc1cccc(C#N)c1)CC(=O)Nc1cccc(OC)c1,> 100 µM (inactive),> 100 µM
COC(=O)c1ccc(CSc2nc(-c3ccccc3)cs2)o1,> 100 µM (inactive),27.1 µM
O=C(Cc1cccc(NC(=O)C2CCCN(C(=O)CCc3ccccc3)C2)c1)Nc1cccc(C(=O)N2CCCC2)c1 (stereo unspecified),> 100 µM (inactive),> 100 µM
CCCNC(=O)c1noc2c1CCc1cc(OC)ccc1-2,> 100 µM (inactive),34.8 µM
O=C(Nc1cccc(S(=O)(=O)N2CCCCC2)c1)c1ccc(Cl)nc1,> 100 µM (inactive),> 100 µM
CN(C)C(=O)c1ccc(NC(=O)CSc2nc3ccccc3[nH]2)cc1,> 100 µM (inactive),> 100 µM
COc1ccc(S(=O)(=O)N2CCCCN3[C@@H](CO)[C@H](c4ccc(C#CC(C)C)cc4)[C@@H]3C2)cc1,> 100 µM (inactive),47 µM
CCc1cc(C(=O)N2CCCC(C(=O)c3cccc4ccccc34)C2)n(C)n1 (stereo unspecified),> 100 µM (inactive),> 100 µM
CC1(C(=O)NS(=O)(=O)c2cccc(Cl)c2)CCN1C(=O)C1(c2ccc(Cl)cc2)CCC1 (stereo unspecified),> 100 µM (inactive),> 100 µM

SMILES,AC50 [1],AC50 [2]
Cc1ccc(OCCn2c(=S)[nH]c3c(N)ncnc32)cc1,> 100 µM (inactive),34.3 µM
Cc1onc(-c2ccccc2Cl)c1C(=O)N[C@@H](C)c1ccccc1,> 100 µM (inactive),> 100 µM
Cc1ccccc1COc1ccc(-c2nn[nH]n2)cc1,> 100 µM (inactive),39.4 µM
NC(=O)C1CCN(c2cc(Cl)ccc2[N+](=O)[O-])CC1,> 100 µM (inactive),> 100 µM
Cc1ccc(CNC(=O)c2ccc(Br)o2)cc1,> 100 µM (inactive),> 100 µM
CCOC(=O)c1[nH]c2ccccc2c1NC(=O)c1ccc(Br)o1,> 100 µM (inactive),41.7 µM
COc1ccc(C(=O)Cn2nnc(-c3ccccc3F)n2)cc1,> 100 µM (inactive),48.8 µM
Cc1nn(-c2ccccc2)c(C)c1NC(=O)COc1ccc2ccccc2c1,> 100 µM (inactive),42.8 µM
CCOc1ccccc1/C=C/c1cc(C(=O)O)c2ccccc2n1,> 100 µM (inactive),37.6 µM
COC(=O)[C@@H](Cc1c[nH]c2ccccc12)NCc1cccc(B(O)O)c1,> 100 µM (inactive),> 100 µM
O=C(CC(=O)c1cccs1)c1ccncc1,> 100 µM (inactive),> 100 µM
Cc1ccccc1S(=O)(=O)N1C[C@H]2CON(C)[C@H]2C[C@H]1c1cccc(-c2ccc(C#N)cc2)c1,> 100 µM (inactive),> 100 µM
O=C(NCc1ccc(S(=O)(=O)Nc2ccccc2Cl)s1)c1ccccc1,> 100 µM (inactive),> 100 µM
CN(C)Cc1nc2ccccc2c(=O)n1Cc1nc(-c2cccc([N+](=O)[O-])c2)cs1,> 100 µM (inactive),> 100 µM
CCOc1ccc(OCCn2c(=S)[nH]c3c(N)ncnc32)cc1,> 100 µM (inactive),47.8 µM
Cc1ccc(NC(=O)c2ccc(CSc3ccccn3)cc2)c(O)c1,> 100 µM (inactive),22.2 µM
CC1CCCC(NC(=O)COC(=O)[C@@H]2CC(O)CN2S(=O)(=O)c2ccc3c(c2)OCCO3)C1C (stereo partly specified),–,> 100 µM
O=C(Nc1nc2ccccc2n1CCN1CCOCC1)c1ccccc1,–,> 100 µM
COc1cc(OC)c(NS(=O)(=O)c2cccc(C(=O)OCC(=O)NCC3CCCO3)c2)cc1Cl (stereo unspecified),–,> 100 µM
Cc1cccc(NC(=O)c2c(C)nn(-c3ccccc3)c2Cl)c1,–,> 100 µM
CCN(CC)S(=O)(=O)c1ccc(N2CCCC2)c(NC(=O)c2ccccc2OC)c1,–,> 100 µM

SMILES,AC50 [1],AC50 [2]
CC(C)(C)CC(=O)Nc1ccccc1N1CCN(c2ccccc2)CC1,–,> 100 µM
COCC#Cc1ccc2c(c1)O[C@H](CN(C)C(=O)c1ccccc1)[C@@H](C)CN([C@H](C)CO)S2(=O)=O,–,> 100 µM
O=C(C[n+]1ccn(-c2ccccc2)c1)c1ccc([N+](=O)[O-])cc1,–,> 100 µM
CCOC(=O)Cc1nnc(NC(=O)CSc2nc3ccccc3[nH]2)s1,–,> 100 µM
Cc1cccc(C)c1NC(=O)C1(C)CSCC(=O)N1CCOc1ccccc1 (stereo unspecified),–,> 100 µM
COc1ccc(C(CC(=O)c2ccc(O)cc2)S(=O)(=O)c2ccc(C)cc2)cc1 (stereo unspecified),–,> 100 µM
CC(=O)NCCOc1nc(N2CCCCC2)nc(N2CCCCC2)n1,–,> 100 µM
Fc1ccc(Br)cc1SCCc1ccncc1,–,> 100 µM
COCc1c(C#N)c(NCCc2ccc(F)cc2)nc(C)c1[N+](=O)[O-],–,> 100 µM
Cc1ccc(S(=O)(=O)N2CCCCC2C(=O)N2CCN(c3ccccc3F)CC2)cc1 (stereo unspecified),–,> 100 µM
Brc1ccccc1Cn1c(-c2cncs2)nc2ccccc21,–,> 100 µM
COc1ccccc1-c1noc2ncnc(Nc3ccccc3C)c12,–,> 100 µM
CC(=O)c1ccc(OCC(=O)Nc2ccc3c(c2)CCC3)cc1,–,> 100 µM
CC(C)Oc1nc(-c2ccccc2Cl)nc2ccccc12,–,> 100 µM
COc1cccc(-c2ccc(NC(=O)C3CCCN(Cc4cnn(C(C)C)c4)C3)cc2)c1 (stereo unspecified),–,> 100 µM
Cc1cccc(C)c1NC(=O)CNC(=O)C(C)N1CCN(c2cccc(Cl)c2)CC1 (stereo unspecified),–,> 100 µM
COc1ccc(OCCC(=O)OCC(=O)NCCC2=CCCCC2)cc1,–,> 100 µM
COc1ccc(-c2csc(NC(=O)c3ccoc3C)n2)cc1,–,> 100 µM
CS(=O)(=O)Nc1ccccc1C(=O)NCCSc1ccccc1,–,> 100 µM
CN(CC(=O)Nc1ccc(F)cc1)C(=O)COc1ccc([N+](=O)[O-])cc1Cl,–,> 100 µM
